Assay results as given in PubChem BioAssay (NCI).
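Growth conditions: 96-well plates. Treatment: test compound, 48 hours, 5 concentrations. Analysis: linear interpolation between bracketing concentrations; unreached endpoints set to highest concentration. TGI marks complete inhibition of growth.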

Key:
Assay in all cases: inhibition of tumour cell growth, NCI panel, 48 h
MDA-MB-435 = tested on: MDA-MB-435
UO-31 renal = tested on: UO-31 renal
OVCAR-8 ovarian = tested on: OVCAR-8 ovarian
IGROV1 ovarian = tested on: IGROV1 ovarian
OVCAR-4 ovarian = tested on: OVCAR-4 ovarian
SN12C renal = tested on: SN12C renal
MALME-3M melanoma = tested on: MALME-3M melanoma
U251 CNS = tested on: U251 CNS
SF-268 CNS = tested on: SF-268 CNS
A498 renal = tested on: A498 renal
NCI-H460 lung = tested on: NCI-H460 lung
SK-MEL-2 melanoma = tested on: SK-MEL-2 melanoma
OVCAR-5 ovarian = tested on: OVCAR-5 ovarian
NCI/ADR-RES ovarian = tested on: NCI/ADR-RES ovarian
HT29 colon = tested on: HT29 colon
MDA-MB-231 breast = tested on: MDA-MB-231 breast
SK-MEL-28 melanoma = tested on: SK-MEL-28 melanoma
SF-295 CNS = tested on: SF-295 CNS
HS 578T breast = tested on: HS 578T breast
K-562 leukemia = tested on: K-562 leukemia
SNB-75 CNS = tested on: SNB-75 CNS
SNB-19 CNS = tested on: SNB-19 CNS
SR leukemia = tested on: SR leukemia
SK-OV-3 ovarian = tested on: SK-OV-3 ovarian
UACC-257 melanoma = tested on: UACC-257 melanoma
TK-10 renal = tested on: TK-10 renal
LOX IMVI melanoma = tested on: LOX IMVI melanoma
HCT-15 colon = tested on: HCT-15 colon
KM12 colon = tested on: KM12 colon
DU-145 prostate = tested on: DU-145 prostate
M14 melanoma = tested on: M14 melanoma
MDA-N = tested on: MDA-N
CCRF-CEM leukemia = tested on: CCRF-CEM leukemia
NCI-H522 lung = tested on: NCI-H522 lung
NCI-H226 lung = tested on: NCI-H226 lung
ACHN renal = tested on: ACHN renal
RXF 393 renal = tested on: RXF 393 renal
HOP-92 NSCLC = tested on: HOP-92 NSCLC
786-0 renal = tested on: 786-0 renal
EKVX NSCLC = tested on: EKVX NSCLC
RPMI-8226 leukemia = tested on: RPMI-8226 leukemia
MOLT-4 leukemia = tested on: MOLT-4 leukemia
OVCAR-3 ovarian = tested on: OVCAR-3 ovarian
HCT-116 colon = tested on: HCT-116 colon
BT-549 breast = tested on: BT-549 breast
CAKI-1 renal = tested on: CAKI-1 renal
PC-3 prostate = tested on: PC-3 prostate
A549 NSCLC = tested on: A549 NSCLC
COLO 205 colon = tested on: COLO 205 colon
SW-620 colon = tested on: SW-620 colon
SF-539 CNS = tested on: SF-539 CNS
NCI-H23 lung = tested on: NCI-H23 lung
T-47D breast = tested on: T-47D breast
SK-MEL-5 melanoma = tested on: SK-MEL-5 melanoma
HOP-62 NSCLC = tested on: HOP-62 NSCLC
MCF7 breast = tested on: MCF7 breast
HL-60(TB) leukemia = tested on: HL-60(TB) leukemia
UACC-62 melanoma = tested on: UACC-62 melanoma
HCC-2998 colon = tested on: HCC-2998 colon

C=C(C)[C@@H]1CCC2=C(CC[C@]3(C)[C@@H]([C@@H](CCC=C(C)C)C(=O)O)[C@H](O)C[C@@]23C)[C@@]1(C)CCC(=O)O
TGI (MDA-MB-435): > 100 µM | TGI (UO-31 renal): > 100 µM | TGI (OVCAR-8 ovarian): > 100 µM | TGI (IGROV1 ovarian): > 100 µM | TGI (OVCAR-4 ovarian): > 100 µM | TGI (SN12C renal): > 100 µM | TGI (MALME-3M melanoma): > 100 µM | TGI (U251 CNS): > 100 µM | TGI (SF-268 CNS): > 100 µM | TGI (A498 renal): > 100 µM | TGI (NCI-H460 lung): > 100 µM | TGI (SK-MEL-2 melanoma): > 100 µM | TGI (OVCAR-5 ovarian): > 100 µM | TGI (NCI/ADR-RES ovarian): > 100 µM | TGI (HT29 colon): > 100 µM | TGI (MDA-MB-231 breast): > 100 µM | TGI (SK-MEL-28 melanoma): > 100 µM | TGI (SF-295 CNS): > 100 µM | TGI (HS 578T breast): > 100 µM | TGI (K-562 leukemia): > 100 µM | TGI (SNB-75 CNS): > 100 µM | TGI (SNB-19 CNS): > 100 µM | TGI (SR leukemia): > 100 µM | TGI (SK-OV-3 ovarian): > 100 µM | TGI (UACC-257 melanoma): > 100 µM | TGI (TK-10 renal): > 100 µM | TGI (LOX IMVI melanoma): > 100 µM | TGI (HCT-15 colon): > 100 µM | TGI (KM12 colon): > 100 µM | TGI (DU-145 prostate): > 100 µM | TGI (M14 melanoma): > 100 µM | TGI (MDA-N): > 100 µM | TGI (CCRF-CEM leukemia): > 100 µM | TGI (NCI-H522 lung): > 100 µM | TGI (NCI-H226 lung): > 100 µM | TGI (ACHN renal): > 100 µM | TGI (RXF 393 renal): > 100 µM | TGI (HOP-92 NSCLC): > 100 µM | TGI (786-0 renal): > 100 µM | TGI (EKVX NSCLC): > 100 µM | TGI (RPMI-8226 leukemia): > 100 µM | TGI (MOLT-4 leukemia): > 100 µM | TGI (OVCAR-3 ovarian): > 100 µM | TGI (HCT-116 colon): > 100 µM | TGI (BT-549 breast): > 100 µM | TGI (CAKI-1 renal): > 100 µM | TGI (PC-3 prostate): > 100 µM | TGI (A549 NSCLC): > 100 µM | TGI (COLO 205 colon): > 100 µM | TGI (SW-620 colon): > 100 µM | TGI (SF-539 CNS): > 100 µM | TGI (NCI-H23 lung): > 100 µM | TGI (T-47D breast): > 100 µM | TGI (SK-MEL-5 melanoma): > 100 µM | TGI (HOP-62 NSCLC): > 100 µM

CCOC(=O)[C@H](CO)Nc1c(O)c2c(c(O)c1Cl)C(=O)C=CC2=O
TGI (MDA-MB-435): > 10 µM | TGI (OVCAR-8 ovarian): > 10 µM | TGI (IGROV1 ovarian): > 10 µM | TGI (OVCAR-4 ovarian): > 10 µM | TGI (SN12C renal): > 10 µM | TGI (MALME-3M melanoma): > 10 µM | TGI (U251 CNS): > 10 µM | TGI (SF-268 CNS): > 10 µM | TGI (NCI-H460 lung): > 10 µM | TGI (SK-MEL-2 melanoma): > 10 µM | TGI (OVCAR-5 ovarian): > 10 µM | TGI (NCI/ADR-RES ovarian): > 10 µM | TGI (HT29 colon): > 10 µM | TGI (MDA-MB-231 breast): > 10 µM | TGI (SK-MEL-28 melanoma): > 10 µM | TGI (SF-295 CNS): > 10 µM | TGI (HS 578T breast): > 10 µM | TGI (K-562 leukemia): > 10 µM | TGI (SNB-75 CNS): > 10 µM | TGI (MCF7 breast): > 10 µM | TGI (SNB-19 CNS): > 10 µM | TGI (SR leukemia): > 10 µM | TGI (SK-OV-3 ovarian): > 10 µM | TGI (UACC-257 melanoma): > 10 µM | TGI (TK-10 renal): > 10 µM | TGI (HL-60(TB) leukemia): > 10 µM | TGI (LOX IMVI melanoma): > 10 µM | TGI (HCT-15 colon): > 10 µM | TGI (KM12 colon): > 10 µM | TGI (DU-145 prostate): > 10 µM | TGI (M14 melanoma): > 10 µM | TGI (UACC-62 melanoma): > 10 µM | TGI (MDA-N): > 10 µM | TGI (CCRF-CEM leukemia): > 10 µM | TGI (NCI-H522 lung): > 10 µM | TGI (NCI-H226 lung): > 10 µM | TGI (ACHN renal): > 10 µM | TGI (RXF 393 renal): > 10 µM | TGI (HOP-92 NSCLC): > 10 µM | TGI (786-0 renal): > 10 µM | TGI (EKVX NSCLC): > 10 µM | TGI (RPMI-8226 leukemia): > 10 µM | TGI (MOLT-4 leukemia): > 10 µM | TGI (OVCAR-3 ovarian): > 10 µM | TGI (HCT-116 colon): > 10 µM | TGI (BT-549 breast): > 10 µM | TGI (CAKI-1 renal): > 10 µM | TGI (PC-3 prostate): > 10 µM | TGI (A549 NSCLC): > 10 µM | TGI (HCC-2998 colon): > 10 µM | TGI (COLO 205 colon): > 10 µM | TGI (SW-620 colon): > 10 µM | TGI (SF-539 CNS): > 10 µM | TGI (NCI-H23 lung): > 10 µM | TGI (T-47D breast): > 10 µM | TGI (SK-MEL-5 melanoma): > 10 µM | TGI (HOP-62 NSCLC): > 10 µM

Cc1cc2nc(CC(C(F)(F)F)C(F)(F)F)oc2cc1C
TGI (MDA-MB-435): 5.64 µM | TGI (UO-31 renal): 26.2 µM | TGI (OVCAR-8 ovarian): 3.23 µM | TGI (IGROV1 ovarian): 10.1 µM | TGI (OVCAR-4 ovarian): 6.92 µM | TGI (MALME-3M melanoma): 9.32 µM | TGI (U251 CNS): 9.41 µM | TGI (SF-268 CNS): 8.2 µM | TGI (A498 renal): 26.3 µM | TGI (NCI-H460 lung): 15.3 µM | TGI (SK-MEL-2 melanoma): 9.85 µM | TGI (OVCAR-5 ovarian): 25.7 µM | TGI (NCI/ADR-RES ovarian): > 43.3 µM | TGI (HT29 colon): 7.91 µM | TGI (MDA-MB-231 breast): 9.09 µM | TGI (SK-MEL-28 melanoma): 15.8 µM | TGI (SF-295 CNS): 18.6 µM | TGI (HS 578T breast): 16.6 µM | TGI (SNB-75 CNS): 16.3 µM | TGI (MCF7 breast): 24.1 µM | TGI (SNB-19 CNS): 17.5 µM | TGI (SK-OV-3 ovarian): > 44.4 µM | TGI (UACC-257 melanoma): 9.55 µM | TGI (TK-10 renal): 39.7 µM | TGI (HL-60(TB) leukemia): 12.5 µM | TGI (LOX IMVI melanoma): 1.44 µM | TGI (HCT-15 colon): 26.8 µM | TGI (KM12 colon): 10.3 µM | TGI (DU-145 prostate): 16.4 µM | TGI (M14 melanoma): 4.72 µM | TGI (UACC-62 melanoma): 3.64 µM | TGI (MDA-N): 5.85 µM | TGI (CCRF-CEM leukemia): > 100 µM | TGI (NCI-H522 lung): 1.13 µM | TGI (NCI-H226 lung): 4.81 µM | TGI (ACHN renal): 20.7 µM | TGI (RXF 393 renal): 9.73 µM | TGI (HOP-92 NSCLC): 28.9 µM | TGI (EKVX NSCLC): 7.6 µM | TGI (RPMI-8226 leukemia): 1.61 µM | TGI (OVCAR-3 ovarian): 14.2 µM | TGI (HCT-116 colon): 2.64 µM | TGI (BT-549 breast): 6.65 µM | TGI (CAKI-1 renal): 5.13 µM | TGI (PC-3 prostate): 5.43 µM | TGI (A549 NSCLC): 30.1 µM | TGI (HCC-2998 colon): 11.8 µM | TGI (COLO 205 colon): 4.98 µM | TGI (SW-620 colon): 2.83 µM | TGI (SF-539 CNS): 7.66 µM | TGI (NCI-H23 lung): 8.15 µM | TGI (T-47D breast): 10.7 µM | TGI (SK-MEL-5 melanoma): 12.2 µM | TGI (HOP-62 NSCLC): 17.2 µM
